Assay results as given in US4684645A, “Benzofused lactams as cholecystokinin antagonists” (Merck & Co., Inc., priority 1985, dated 1987).

How the values were obtained:
CCK receptor = test: 125I-CCK-33 receptor binding (pancreas or brain preparation not given); settings: concentration dependent inhibition; tissue (rat pancreas or guinea pig brain) not stated; read-out: IC50, inhibition of specific 125I-CCK-33 binding
Procedure: The biological activity of the compounds of Formula I have been evaluated using an ^125 I-CCK receptor binding assay and in vitro isolated tissue preparations.
(§1) CCK-33 was radiolabeled with ^125 I-Bolton Hunter reagent (2000 Ci/mmole) as described by Sankara et al. (J. Biol. Chem. 254: 9349-9351, 1979). Receptor binding was performed according to Innis and Snyder (Proc. Natl. Acad. Sci. 77: 6917-6921, 1980) with the minor modification of adding the additional protease inhibitors, phenylmethane sulfonyl fluoride and o-phenanthroline. The latter two compounds have no effect on the ^125 I-CCK receptor binding assay.
Male Sprague-Dawley rats (200-350 g) were sacrificed by decapitation. The whole pancreas was dissected free of fat tissue and was homogenized in 20 volumes of ice-cold 50 mM, Tris HCl (pH 7.7 at 25° C.) with a Brinkmann Polytron PT 10. The homogenates were centrifuged at 48,000 g for 10 min. Pellets were resuspended in Tris Buffer, centrifuged as above and resuspended n 200 volumes of binding assay buffer (50 mM Tris HCl, pH 7.7 at 25° C., 5 mM dithiothriethel, 0.1 mM bacitracin, 1.2 mM phenylmethane sulfonyl fluoride and 0.5 mM o-phenanthroline). For the binding assay, 25 μl of buffer (for total binding) or unlabeled CCK-8 sulfate to give a final concentration of lμM (for nonspecific binding) or the compounds of Formula I (for determination inhibition of ^125 I-CCK binding) and 25 μl of ^125 I-CCK-33 (30,000-40,000 cpm) were added to 450 μl of the membrane suspensions in microfuge tubes. All assays were run in duplicate or triplicate. […] The supernatant was aspirated and discarded, pellets were counted with a Beckman gamma 5000. […]
Male Hartley guinea pigs (300-500 g) were sacrificed by decapitation and the brains were removed and placed in ice-cold 50 mM, Tris HCl plus 7.58 g/l Tritma-7.4 (pH 7.4 at 25° C.) Cerebral cortex was dissected and used as a receptor source. […] The supernatant was aspirated and discarded, pellets were counted with a Beckman gamma 5000.

guinea pig ileum = test: CCK induced contraction, isolated longitudinal muscle of guinea pig ileum; design: species or system guinea pig (male Hartley); settings: at 4.2 μM
Procedure: Longitudinal muscle strips with attached nerve plexus were prepared as described previously (Brit J. Pharmac. 23: 356-363, 1964; J. Physiol. 194: 13-33, 1969). Male Hartley guinea pigs were decapitated and the ileum was removed (10 cm of the terminal ileum was discarded and the adjacent 20 cm piece was used). A piece (10 cm) of the ileum was stretched on a glass pipette. Using a cotton applicator to stroke tangently away from the mesentery attachment at one end, the longitudinal muscle was separated from the underlying circular muscle. The longitudinal muscle was then tied to a thread and by gently pulling, stripped away from the entire muscle. A piece of approximately 2 cm was suspended in 5 ml organ bath containing Krebs solution and bubbled with 95% O2 and 5% CO2 at 37° C. under 0.5 g tension. CCK-8 was added cumulatively to the baths and EC50 values in the presence and absence of compounds of Formula I determined as described in the gall bladder protocol (above).

CCK receptor (pancreas) = test: CCK Receptor Binding (Pancreas), 125I-CCK-33; design: species or system rat (male Sprague-Dawley); settings: added as protease inhibitors; binding assay buffer
Procedure: as §1
Male Sprague-Dawley rats (200-350 g) were sacrificed by decapitation. The whole pancreas was dissected free of fat tissue and was homogenized in 20 volumes of ice-cold 50 mM, Tris HCl (pH 7.7 at 25° C.) with a Brinkmann Polytron PT 10. The homogenates were centrifuged at 48,000 g for 10 min. Pellets were resuspended in Tris Buffer, centrifuged as above and resuspended n 200 volumes of binding assay buffer (50 mM Tris HCl, pH 7.7 at 25° C., 5 mM dithiothriethel, 0.1 mM bacitracin, 1.2 mM phenylmethane sulfonyl fluoride and 0.5 mM o-phenanthroline). […] The supernatant was aspirated and discarded, pellets were counted with a Beckman gamma 5000.

guinea pig gall bladder = test: CCK induced contraction, isolated guinea pig gall bladder; design: species or system guinea pig (male Hartley); settings: at 26 μM
Procedure: Male Hartley guinea pigs (400-600 g) were sacrificed by decapitation. The whole gall bladder was dissected free from adjacent tissues and cut into two equal halves. The gall bladder strips were suspended along the axis of bile duct in 5 ml organ bath under 1 g tension. The organ bath contained a Kreb's bicarbonate solution (NaCl 118 mM, KCl 4.75 mM, CaCl 2.54 mM, KH2 PO4 1.19 mM, Mg SO4 1.2 mM, NaHCO3 25 mM and dextrose 11 mM) maintained at 32° C. and bubbled with 95% O2 and 5% CO2. Isometric contractions were recorded using Statham (60 g; 0.12 mm) strain gauges and a Hewlett-Packard (77588) recorder. The tissues were washed every 10 minutes for 1 hr to obtain equilibrium prior to the beginning of the study. CCK-8 was added cumulatively to the baths and EC50 's determined using egression analysis. After washout (every 10 minutes for 1 hr), the compound of Formula I was added at least 5 minutes before the addition of CCK-8 and the EC50 of CCK-8 in the presence of the compound of Formula I similarly determined.

Row | SMILES | IC50 (CCK receptor) [nM] | effect on the 125I-CCK receptor binding assay (CCK receptor (pancreas)) | further results
1 | COC(=O)CN1C(=O)C(NC(CCc2ccccc2)C(=O)OC)CCc2ccccc21 (racemic) [1-Carbomethoxymethyl-3-(1-carbomethoxy-3-phenyl-1-propyl)aminohomodihydrocarbostyril] | 10000 |  | 
2 | CCOC(=O)C(CCc1c[nH]c2ccccc12)NC1CCc2ccccc2N(CC(=O)OC(C)(C)C)C1=O (stereo not drawn) [1-t-Butoxycarbonylmethyl-3-(1-carboethoxy-3-(3)indolyl-1-propyl)amino homodihydrocarbostyril] | 400 |  | effect on maximal responses to CCK (guinea pig ileum): without affecting maximal responses; shift of CCK dose response to the right (guinea pig ileum): approximately 2.6 fold
3 | c1cnc2c(c1)ccc1cccnc12 [o-phenanthroline] |  | no effect | 
4 | CCOC(=O)C(CCc1ccccc1)NC1CCc2ccccc2N(CC(=O)OC(C)(C)C)C1=O (stereo not drawn) [1-t-Butoxycarbonylmethyl-3-(1-carboethoxy-3-phenyl-1-propyl]-amino homodihydrocarbostyril] | 2400 |  | 
5 | O=S(=O)(F)Cc1ccccc1 [phenylmethane sulfonyl fluoride] |  | no effect | 
6 | CCOC(=O)CN1C(=O)C(NC(CCc2ccccc2)C(=O)OCC)CCc2ccccc21 (racemic) [1-Carboethoxymethyl-3-(1-carboethoxy-3-phenyl-1-propyl)-amino homodihydrocarbostyril] |  |  | effect on maximal responses to CCK (guinea pig gall bladder): without reducing maximal responses; shift of CCK dose response (guinea pig gall bladder): about 10 times
